Measured values: patent US20260337125A1, “RADIOLABELED TYROSINE DERIVATIVE AND APPLICATION THEREOF” (Osaka University, priority 2022, published 2026)

Key:
[1] = Measurement of accumulated amounts of 211At-labeled compounds in PANC1 tumor-bearing mice; format: in vivo, human (PANC1) in Balb/c-nu/nu mice; conditions: tumor, iv, 0.1 MBq/animal, 0.1 MBq/0.2 mL per mouse, tail vein, read-out: tumor accumulation
Protocol: Radiation doses before and after the administration were measured, and a difference between them was defined as an injected dose (ID). Ten minutes and one hour after administration, the mice were anesthetized by isoflurane inhalation, the tumors were isolated by autopsy in chronological order, and their radiation doses and weights were measured using a gamma counter (2480 Wizard^2, PerkinElmer) and a semimicro scale (Shimadzu Corporation, readability 10 μg), respectively. For comparison between accumulated amounts, accumulated amounts per unit amount (% ID/g) were calculated.
In Table 1, the amounts of the ^211At-labeled compounds accumulated in tumors of the PANC1 tumor-bearing models (% ID/g) are shown. It should be noted that in Table 1, “OMe” is ^211At-AAMT-OMe, “OEt” is ^211At-AAMT-OEt, “OPr” is ^211At-AAMT-OPr, and “OH” is ^211At-AAMT.

[2] = test system: CDDP-resistant A549 (A549 CDDP-r); conditions: 48 hours, 37 °C, Cell counting kit-8
Protocol: Two days before experiment, A549 and CDDP-resistant A549 (A549 CDDP-r) were each seeded in a 96-well plate at a concentration of 1×10^5 cells/mL. ^211At-AAMT-OMe or ^211At-AAMT adjusted to a predetermined concentration was added to A549 cells and CDDP-resistant A549 cells, respectively, and the cells were cultured (CO2 5%, 37 °C). After the cultivation for 48 hours, Cell counting kit-8 (DOJINDO LABORATORIES) was added. After the addition, the cells were cultured at 37 °C for 1 hour, and cell viability was measured using absorbance at 450 nm as an indicator.

[3] = background art; cited from earlier work
[4] = test system: human pancreatic cancer cell line (PANC1); assay: Imaging of mice subcutaneously transplanted with human pancreatic cancer cell line PANC1; format: in vivo, human (PANC1) in Balb/c-nu/nu mice; conditions: 2 hours after administration, 0.5 MBq/0.2 mL per mouse, tail vein
Source text: Immunodeficient mice (Balb/c-nu/nu, 5-week-old, male) were habituated for 1 week and then subcutaneously transplanted with a human pancreatic cancer cell line (PANC1, 1×10^7 cells/mouse). After the transplantation, the mice were observed over time until tumor reached a size large enough for imaging (about 1000 mm^3). […] Two hours after administration, the mice were anesthetized by isoflurane inhalation, and planar images were taken using a γ camera (E-cam, Siemens).

C[C@](N)(Cc1ccc(O)c([At])c1)C(=O)O [^211At-AAMT, astato(^211At)-α-methyl-L-tyrosine, reference compound]
tissue uptake at 10 min ([1]; 10 minutes after administration): 0.29 %ID/g
tissue uptake at 1 h ([1]; 1 hour after administration): 2.49 %ID/g
cytotoxicity [2]: has cytotoxicity against CDDP-resistant A549 (A549 CDDP-r)
clearance [3]: fast clearance
accumulation in tumor site (planar γ camera image) [4]: accumulated in the tumor sites
